Consider one molecule from ChEMBL document CHEMBL5729418, “Compounds and methods useful in the treatment of a PRMT5-mediated disorder” (2022).

This experiment concerns the target PRMT5/MEP50 complex (Homo sapiens, UniProt O14744). In words: Chemiluminescent Assay: A PRMT5 chemiluminescent assay was used to measure the IC50 activity of PRMT5 of the compounds of Examples 1A to 7 above. Biotinylated histone peptides were synthesized and attached to 384-well plates. Compound serial dilutions were performed and added to the assay plate. Histone H4 monomethyl R3 antibody was obtained from Abcam. A master mix for each well was prepared and human PRMT5/MEP50 (expressed in HEK293 cells) diluted in assay buffer to a concentration of 5 ng/μL. The reaction was incubated and slowly rotated for 60 minutes at the point of PRMT5/MEP50 addition. The supernatant from the wells was removed and blocking buffer was added to each well and rotated for 10 minutes. The primary antibody was diluted and added to every well for 60 minutes, before it was removed and the wells washed. The horse raddish peroxidase (HRP)-coupled secondary antibody was diluted and added to each well with an incubation time of 30 minutes. The HRP chemiluminescent substrate was added to every well. The plate was read on a Flourstar Omega BMG Labtech instrument (Ortenberg, Germany) and the analysis of IC50 was performed using the Flourstar Omega BMG Labtech software. The format is cell-based.

Sequence of PRMT5/MEP50 complex (O14744 whole entry): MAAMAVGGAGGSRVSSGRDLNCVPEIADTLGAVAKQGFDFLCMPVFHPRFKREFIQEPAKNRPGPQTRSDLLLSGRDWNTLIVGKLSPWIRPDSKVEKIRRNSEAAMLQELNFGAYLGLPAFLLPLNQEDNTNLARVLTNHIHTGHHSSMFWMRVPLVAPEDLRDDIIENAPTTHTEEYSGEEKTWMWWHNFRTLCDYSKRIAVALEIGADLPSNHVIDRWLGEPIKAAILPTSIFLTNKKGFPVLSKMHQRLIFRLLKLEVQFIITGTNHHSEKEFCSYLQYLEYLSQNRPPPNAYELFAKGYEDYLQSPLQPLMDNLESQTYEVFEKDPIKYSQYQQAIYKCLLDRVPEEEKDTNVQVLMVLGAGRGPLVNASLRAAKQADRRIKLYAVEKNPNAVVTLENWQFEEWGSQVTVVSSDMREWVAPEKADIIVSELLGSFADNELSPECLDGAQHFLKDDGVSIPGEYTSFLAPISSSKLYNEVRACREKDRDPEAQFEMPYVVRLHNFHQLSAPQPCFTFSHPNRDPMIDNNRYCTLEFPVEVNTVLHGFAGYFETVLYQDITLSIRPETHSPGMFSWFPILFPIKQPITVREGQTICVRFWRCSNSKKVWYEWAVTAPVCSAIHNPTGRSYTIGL
Sequence of PRMT5/MEP50 complex (Q9BQA1 whole entry, further chain): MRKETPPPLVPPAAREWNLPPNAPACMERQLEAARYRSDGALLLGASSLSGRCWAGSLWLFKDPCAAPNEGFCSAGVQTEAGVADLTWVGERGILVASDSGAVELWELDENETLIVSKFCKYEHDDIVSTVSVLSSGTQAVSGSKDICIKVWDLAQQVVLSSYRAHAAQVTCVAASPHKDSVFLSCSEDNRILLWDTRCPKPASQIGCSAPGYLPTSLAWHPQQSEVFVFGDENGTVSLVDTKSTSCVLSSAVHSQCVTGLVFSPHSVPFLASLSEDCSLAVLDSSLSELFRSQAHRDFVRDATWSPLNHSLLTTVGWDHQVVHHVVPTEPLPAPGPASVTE

One may read the IC50 as the point on the concentration scale where inhibition reaches its midpoint. A high value points to lower potency. Take `O=C(OCC(O)CN1CCc2ccccc2C1)N1CCCC(c2ccccc2)C1` (stereo unspecified): 75 nM corresponded to half-maximal inhibition (IC50).
